Like-named read-outs stand apart in the source and are kept apart here.
Columns and labels:
[1] = 25° C.; cited from earlier work
[2] = 12 mg per day nasal spray; cited from earlier work
rhinovirus type 39 = test: Study 843-203: experimentally induced human rhinovirus respiratory infection in healthy adults, antiviral and clinical efficacy; assay type: in vivo
Method: Subjects were confined to a clinical facility with on-site medical surveillance from Day −2 through Day 5; outpatient follow-up visits were conducted on Days 5-7. On Day −1, 24 hours before administration of the first dose of study drug, each subject received an intranasal inoculation of 100-300 tissue culture infective dose 50% (TCID50) rhinovirus type 39. Nasal wash specimens were collected pre-inoculation and once or twice daily at predetermined time points on Days 1-7 for virologic determinations. Nasal mucus weights were determined daily through Day 4. The presence and severity of clinical symptoms were assessed throughout the study period. […] One subject in the pleconaril BID nasal spray group had study drug interrupted temporarily due to “blood in nasal mucus” observed on Day 1; this event was considered mild and resolved without treatment, and the subject completed BID dosing on Days 2 and 3.
Primary Endpoint: Log-transformed virus titers from serial nasal wash samples in Study 843-203 are shown in FIG. 2 for virology evaluable subjects (i.e., those subjects with a pre-inoculation serum neutralizing antibody titer to rhinovirus type 39 ˜1:2 and reverse transcriptase polymerase chain reaction [RT-PCR] and culture negative nasal wash sample and at least one post baseline nasal wash sample that was RT-PCR or culture positive). At the time of maximum viral titers (Day 2 AM) in the combined vehicle groups, median viral titers in each pleconaril group were 0.78-1.26 log lower than vehicle groups, and viral titers in the combined pleconaril BID/TID groups were 1 log lower than the vehicle groups.

[3] = system: human respiratory picornavirus; conditions: oral dosage form; cited from earlier work
CYP 3A = conditions: oral delivery, 200-400 mg dose level, cited from earlier work
[4] = Study 843-203: safety and tolerability in healthy adults; assay type: in vivo, human; conditions: healthy volunteers

## Cc1cc(CCCOc2c(C)cc(-c3noc(C(F)(F)F)n3)cc2C)on1 [pleconaril, 3-{3,5-dimethyl-4-[3-(3-methylisoxazol-5-yl)propoxy]phenyl}-5-(trifluoromethyl)-1,2,4-oxadiazole]
[1]
  solubility in water: < 0.02 µg/mL
[2]
  clinical/antiviral effect compared with 400 mg oral dose: roughly similar clinical/antiviral effect
  systemic exposure: without any significant systemic exposure
Rhinovirus type 39; Day 1 PM to Day 7
  repeated measures analysis of viral titers, between-group comparison: not significant
Rhinovirus type 39; each pleconaril treatment group (intranasal and oral), initiation of study drug through Day 3 AM
  median log-transformed viral titers vs vehicle groups: lower than the vehicle groups at all measured time points
Rhinovirus type 39; nasal and oral pleconaril groups
  nasal mucus weights vs combined vehicle controls: significantly lower nasal mucus weights
Rhinovirus type 39; nasal and oral pleconaril groups, through day 3 post infection
  benefit vs. vehicle: showed benefit vs. vehicle
Rhinovirus type 39; nasal spray BID, nasal spray TID or oral
  effect on common cold symptom duration and viral titers: effective in reducing common cold symptom duration and viral titers
Rhinovirus type 39; nasal wash, Day 2 AM (time of maximum viral titers), each pleconaril group
  median viral titers lower than vehicle groups: 0.78-1.26 log
Rhinovirus type 39; nasal wash, Day 2 AM, combined pleconaril BID/TID groups
  viral titers lower than vehicle groups: 1 log
[3]
  activity against human respiratory picornavirus: broad activity
CYP 3A
  CYP 3A / CYP 3A4 induction: inducer of CYP 3A4
CYP 3A; listed as Pleconaril
  CYP 3A / CYP 3A4 induction: induction of CYP 3A
[4]
  serious adverse events: No serious adverse events

— patent US20160193188A1, “METHODS AND COMPOSITIONS FOR INCREASING THE EFFECTIVENESS OF ANTIVIRAL AGENTS” (ANTIVIRUS THERAPEUTICS, priority 2013, published 2016)
